Experimental data: patent publication US20100062012A1, “Negative Genetic Regulation of Cancer Cell Renewal in Synergy with Notch- or Numb-Specific Immunotherapy” (priority 2007, published 2010)
Structures can show the parent of a compound that is named as a salt. Peptide text beside a SMILES is read from it. * marks the point of attachment. Cbz = O=C(OCc1ccccc1)*

How the values were obtained:
MCF7 [1] = assay: MTT inhibition of proliferation; assay type: cell-based; conditions: Homo sapiens, 72 h
Source text: (§1) Inhibition of proliferation of tumor cell lines by anticancer drugs.

MIA-PaCa-2 [2] = assay: MTT inhibition of proliferation; assay type: cell-based; conditions: Homo sapiens; MIA-PaCa-2, MTT, 72 h
Source text: as §1

PANC-1 [3] = assay: MTT inhibition of proliferation; assay type: cell-based; conditions: Homo sapiens; PANC-1, MTT, 72 h
Source text: as §1

AsPC-1 [4] = assay: MTT inhibition of proliferation; assay type: cell-based, human; conditions: for IC50: AsPC-1, MTT, 72 h
Source text: as §1

SKOV-3 [5] = assay: MTT inhibition of proliferation; assay type: cell-based, human; conditions: SKOV-3, MTT
Source text: as §1

AsPC-1 [6] = assay: Flow cytometry of CSt-C markers after culture with drugs; assay type: cell-based, human; conditions: AsPC-1 after culture with drug
Description: (§2) Flow cytometery analysis. All cells were cultured with Gem at 2×IC50 of gemcitabine for 10 days. Cultured cells (2×10^5) were washed in cold-PBS followed by blocking with 20 μL of 1 mg/mL of human IgG (Sigma, Saint Louis, Mo.) for 1 hour on ice. This step was necessary to inhibit non-specific binding of immunoglobulins during staining. Cells were then triple-stained with antibodies against ESA, CD44, and CD24. Analysis was performed with Becton Dickinson FACSCalibur and Cell Quest software (Becton Dickinson). Cells were gated on ESA+ population. Expression of CD24 and CD44 was examined in gated ESA+ cells as we described (26). The population of the ESA+, CD44hi and CD24low/− cells was calculated as percent of total cells and total ESA+ cells. All cell lines were also stained with a MIC-A/B and CD133, and analyzed as above.

MCF7 [7] = assay: as above; assay type: cell-based, human; conditions: for cells harvested: after culture of 3×10^6 MCF-7 cells
Description: as §2

MIA-PaCa-2 [8] = assay: as above; assay type: cell-based, human; conditions: for % CD44hi CD24- in ESA+ cells / % CD44hi CD24hi in ESA+ cells / % CD44hi CD24low in ESA+ cells / % CSt-like-C / % ESA+: MIA-PaCa-2 after culture with drug
Description: as §2

PANC-1 [9] = assay: as above; assay type: cell-based, human
Description: as §2

SKOV-3 [10] = assay: as above; assay type: cell-based, human
Description: as §2

MCF7 cells = assay: Stimulation of MCF7 / GEMRes MCF7 by DLL4; assay type: cell-based, human
Description: Stimulation of GEMRes MCF7 by DLL4. GEMRes MCF7 were obtained after culture with 0.3 uM GEM for 7 weeks. MCF7 were stimulated for 24 hrs, in medium containing estradiol, fibroblast growth factor in the presence or absence of DLL4, as described (40).

MIA-PaCa-2 [11] = assay: Flow cytometry of NKG2D ligands MIC-A/B in drug-resistant cells; assay type: cell-based, human; conditions: MIA PaCa-2, FIG. 7A
Description: as §2
To address the hypothesis that drug-resistant cancer cells are more sensitive to cellular immune effectors, we quantified expression of NKG2D ligands, MIC-A and -B (58, 59). ESA^+ MIA-PaCa-2 cells were analyzed for MIC-A/B. MCF7 cells were analyzed with CD44, CD24 and MIC-A/B (FIG. 7B), because almost all MCF7 cells (95% and more) expressed ESA.

MCF7 [12] = assay: Quantitative immunoblot of Notch and Numb proteins with or without GEM; assay type: cell-based, human
Description: (§3) Western blot analysis. Cell lysates of live MIA-PaCa-2, MCF7, and SKOV-3 were prepared as we described (74) after trypsin treatment of cultures. This procedure eliminated dead and dying cells. Cellular proteins were resolved by SDS-PAGE and transferred to a polyvinylidene difluoride membrance. Immuno-blotting and quantification was performed as we described (74). […] Notch signals promote survival and proliferation of normal stem cells. Notch signals are mediated by truncated intracellular domain (NICD), which activate transcription in the nucleus. Numb antagonizes Notch signal by inducing degradation of Notch (60, 13). Mammalian Numb has four splicing isoforms, which are divided into two types (Numb^L and Numb^S) based on the presence or absence of a 49 amino acid insert (5 kDa) in the proline-rich region (PRR) in the C-terminus. It is unclear whether Numb^L or Numb^S is a significant antagonist of Notch. To characterize expression of Notch and Numb proteins we performed quantitative immunoblot analysis of proteins in the lysates of live MIA-PaCa-2 and MCF7 cultured with or without GEM. (FIG. 9).

MIA-PaCa-2 [13] = assay: as above; assay type: cell-based, human
Description: as §3

MIA-PaCa-2 [14] = assay: Flow cytometry of CSt-C markers after culture with drugs; assay type: cell-based, human; conditions: starting from 3.0×10^6 Mia-PaCa-2 cells
breast tumors = conditions: reference 14; cited from earlier work
Ovarian and PC = assay: CD44+ CD24lo cells after taxol; assay type: cell-based; conditions: Ovarian and PC treated
SKOV3.A2 cells = assay: IFN-g production by Numb-1 peptide activated PBMC on SKOV3.A2 cells; assay type: cell-based, human; conditions: presentation of Numb-1(87-95) peptide; 24 h and 48 h
Description: FIG. 11. (A). SKOV3.A2 cells present the Numb-1 (87-95) peptide to Numb-1 peptide activated PBMC. Substantially higher, by 2-fold IFN-g production by Numb-1-peptide activated PBMC than by Notch peptides activated PBMC. Note that at 48 h the amount of IFN g produced by the two Notch peptide activated cell lines and the non-specifically, IL-2-activated cell lines was low and similar. Only Notch peptide, 2112-2120, can be presented by HL-A2 after Notch digestion by proteasome. (the program paproc.de). (B). Western analysis of Notch and Numb protein expression in SKOV3. […] A part of Numb is phosphorylated. A small part of Numb was phosphorylated at the Ser^283. A large part of Numb was phosphorylated at the Ser^264. […] The closed symbols indicate are 24 h measurements, the open symbols indicate 48 h measurements.

Nc1ccn([C@@H]2O[C@H](CO)[C@@H](O)C2(F)F)c(=O)n1 [GEM, gemcitabine hydrochloride]
IC50 (MCF7 [1]): 430 nM | IC50 (MIA-PaCa-2 [2]): 300 nM | IC50 (PANC-1 [3]): 350 nM | IC50 (AsPC-1 [4]; hydrochloride): 20 nM | IC50 (AsPC-1 [4]; Homo sapiens, ASPC1, 72 h): < 20 nM | IC50 (SKOV-3 [5]; Homo sapiens, SK-OV-3, 72 h): < 20 nM | IC50 (SKOV-3 [5]; 72 h, hydrochloride): 16 nM | % CD44hi CD24- in ESA+ cells (AsPC-1 [6]): 19.3% | % CD44hi CD24hi in ESA+ cells (AsPC-1 [6]): 20.1% | % CD44hi CD24low in ESA+ cells (AsPC-1 [6]): 58.2% | % CSt-like-C (AsPC-1 [6]): 57.6% | % ESA+ (AsPC-1 [6]): 98.9% | change of CSt-like-C population (MCF7 [7]; MCF7): increased | increase of ESA+ CD44hi CD24low and CD133+ populations in GEMRes population vs entire population (MCF7 [7]; MCF7): 3-5 fold | % CD44hi CD24- in ESA+ cells (MCF7 [7]; MCF7 after culture with drug): 0.3% | % CD44hi CD24hi in ESA+ cells (MCF7 [7]; MCF7 after culture with drug): 10.2% | % CD44hi CD24low in ESA+ cells (MCF7 [7]; MCF7 after culture with drug): 6.3% | % CSt-like-C (MCF7 [7]; MCF7 after culture with drug): 6.3% | % ESA+ (MCF7 [7]; MCF7 after culture with drug): 95.4% | cells harvested (MCF7 [7]): 0.6 ×10^6 | change of CSt-C (CSt-like-C) population (MIA-PaCa-2 [8]; MIA-PaCa-2): increased | % CD44hi CD24- in ESA+ cells (MIA-PaCa-2 [8]): 1.1% | % CD44hi CD24hi in ESA+ cells (MIA-PaCa-2 [8]): 12.2% | % CD44hi CD24low in ESA+ cells (MIA-PaCa-2 [8]): 43.2% | % CSt-like-C (MIA-PaCa-2 [8]): 17.0% | % ESA+ (MIA-PaCa-2 [8]): 39.5% | increase of ESA+ CD44hi CD24low and CD133+ populations in GEMRes population vs entire population (MIA-PaCa-2 [8]; Mia-PaCa-2): 3-5 fold | increase of ESA+ CD44hi CD24low and CD133+ populations in GEMRes population vs entire population (PANC-1 [9]; PANC-1): 3-5 fold | % CD44hi CD24- in ESA+ cells (PANC-1 [9]; PANC-1 after culture with drug): 8.6% | % CD44hi CD24hi in ESA+ cells (PANC-1 [9]; PANC-1 after culture with drug): 9.7% | % CD44hi CD24low in ESA+ cells (PANC-1 [9]; PANC-1 after culture with drug): 50.0% | % CSt-like-C (PANC-1 [9]; PANC-1 after culture with drug): 38.3% | % ESA+ (PANC-1 [9]; PANC-1 after culture with drug): 76.7% | increase of ESA+ CD44hi CD24low and CD133+ populations in GEMRes population vs entire population (SKOV-3 [10]; SKOV3): 3-5 fold | % CD44hi CD24- in ESA+ cells (SKOV-3 [10]; SKOV-3 after culture with drug): 0.1% | % CD44hi CD24hi in ESA+ cells (SKOV-3 [10]; SKOV-3 after culture with drug): 46.0% | % CD44hi CD24low in ESA+ cells (SKOV-3 [10]; SKOV-3 after culture with drug): 51.5% | % CSt-like-C (SKOV-3 [10]; SKOV-3 after culture with drug): 50.2% | % ESA+ (SKOV-3 [10]; SKOV-3 after culture with drug): 97.5% | GEMRes MCF7 cells in G1 (resting) phase (MCF7 cells): > 90% | CD44hi CD24hi (% of cells) (MCF7 cells; MCF7): 19.7% | CD44hi CD24hi (cell number) (MCF7 cells; MCF7): 0.26 | CD44hi CD24low (% of cells) (MCF7 cells; MCF7): (7.1%) | CD44hi CD24low (cell number) (MCF7 cells; MCF7): 0.09 × 10^6 | ratio CD44hi CD24hi to CD44hi CD24low (MCF7 cells; MCF7): 2 | Stimulation Index (MCF7 cells; MCF7, harvested/seeded): 0.44 | Harvested cells (MCF7 cells; MCF7, seeded 3.0 x 10^6): 1.32 10^6 | number of cells expressing MICA and MICB in drug-resistant cells (MIA-PaCa-2 [11]): increased | NECD expression increase, GEMRes vs GEMSens (MCF7 [12]): 73% | NICD level decrease, GEMRes vs GEMSens (MCF7 [12]): 39% | NumbL expression decrease, GEMRes vs GEMSens (MCF7 [12]): 29% | NumbS decrease, GEMRes vs GEMSens (MCF7 [12]): 18% | NECD expression increase, GEMRes vs GEMSens (MIA-PaCa-2 [13]): 18% | NICD level increase, GEMRes vs GEMSens (MIA-PaCa-2 [13]): 35% | NumbL expression increase, GEMRes vs GEMSens (MIA-PaCa-2 [13]): 50% | NumbS decrease, GEMRes vs GEMSens (MIA-PaCa-2 [13]): 18% | cells harvested (MIA-PaCa-2 [14]): 1.3 ×10^6 cells

CC(C)C[C@@H](C=O)NC(=O)[C@H](CC(C)C)NC(=O)[C@H](CC(C)C)NC(=O)OCc1ccccc1 [MG132] (Cbz-Leu-Leu-Leu-aldehyde)
low Numb levels after treatment (breast tumors): restored to high levels

CC(=O)O[C@H]1C(=O)[C@@]2(C)[C@H]([C@H](OC(=O)c3ccccc3)[C@]3(O)C[C@H](OC(=O)[C@H](O)[C@@H](NC(=O)c4ccccc4)c4ccccc4)C(C)=C1C3(C)C)[C@]1(OC(C)=O)CO[C@@H]1C[C@@H]2O [PTX, paclitaxel]
IC50 (MCF7 [1]): 4.5 nM | IC50 (MIA-PaCa-2 [2]): 5.3 nM | IC50 (PANC-1 [3]): 3.9 nM | IC50 (AsPC-1 [4]; Homo sapiens, ASPC1, 72 h): 18.3 nM | IC50 in AsPC-1 relative to PANC-1 (AsPC-1 [4]; most resistant vs most sensitive line): more than 4 fold | IC50 (SKOV-3 [5]; Homo sapiens, SK-OV-3, 72 h): 4.7 nM | change of CSt-like-C population (MCF7 [7]; MCF7): increased | cells harvested (MCF7 [7]): 0.4 ×10^6 | % CD44hi CD24- in ESA+ cells (MIA-PaCa-2 [8]): 1.0% | % CD44hi CD24hi in ESA+ cells (MIA-PaCa-2 [8]): 21.2% | % CD44hi CD24low in ESA+ cells (MIA-PaCa-2 [8]): 23.1% | % CSt-like-C (MIA-PaCa-2 [8]): 7.7% | % ESA+ (MIA-PaCa-2 [8]): 33.2% | number of cells expressing MICA and MICB in drug-resistant cells (MIA-PaCa-2 [11]): did not increase | number of CD44+ CD24lo cells (Ovarian and PC): increased | cells harvested (MIA-PaCa-2 [14]): 3.3 ×10^6 cells

C[S+]([O-])c1ccc(-c2nc(-c3ccc(F)cc3)c(-c3ccncc3)[nH]2)cc1 (stereo not shown) [SB20380]
effect of treatment of SKOV3.A2 cells on IFN-g production by the indicator cell line (SKOV3.A2 cells): weaker inhibitory effect

CN[C@@H]1C[C@H]2O[C@@](C)([C@@H]1OC)n1c3ccccc3c3c4c(c5c6ccccc6n2c5c31)C(=O)NC4 [staurosporine]
effect of treatment of SKOV3.A2 cells on IFN-g production by the indicator cell line (SKOV3.A2 cells): abolished
